Source: patent publication EP0220825A2, “Pharmaceutical composition for topical application” (DIOMED DEVELOPMENTS LIMITED, priority 1985, dated 1987)
Where “and” joins values, the source holds several entries; their conditions need not be identical. Equal entries are not always repeated.

Tests used:
skin = assay: Erythema score after topical application; assay type: in vivo
Description: Using an erythema scale of 0 to 3, an erythema value of up to 0.5 (which is barely detectable) is considered acceptable. The figures for "area" given in the third column are obtained by graphical integration of a graph of blood cell flux against time obtained using the laser Doppler flowmeter. Any figure in this column greater than about 20 may be regarded as indicative of a useful improvement in local blood flow in the treated area. […] Thus the compositions in accordance with the invention make it possible to obtain a useful increase in local blood flow without appreciable erythema. The compositions of the present invention are thus useful in preventing pressure sores where is it desired to stimulate local blood flow without obvious erythema.

local blood flow = assay: Laser Doppler flowmeter measurement of blood cell flux after topical application; assay type: in vivo; conditions: for No. measurable responses: of ten subjects; for Time to response Initial / Time to response Peak / Time to response Return to zero: ± S.D.
Description: The blood cell flux is then given by the product of the number of red blood cells found to be moving in the irradiated volume of skin and adjacent tissue and the mean red blood cell velocity. The results expressed by the flowmeter indicate the relative change of the blood cell flux over control conditions, i.e. before application of the composition. […] The figures for "area" given in the third column are obtained by graphical integration of a graph of blood cell flux against time obtained using the laser Doppler flowmeter. Any figure in this column greater than about 20 may be regarded as indicative of a useful improvement in local blood flow in the treated area. […] Thus the compositions in accordance with the invention make it possible to obtain a useful increase in local blood flow without appreciable erythema. The compositions of the present invention are thus useful in preventing pressure sores where is it desired to stimulate local blood flow without obvious erythema.

Erythema (skin; 0.025 % hexyl nicotinate lotion, site arms, single subjects, score 0-3 (0=No erythema, 3=severe erythema)): 0 (4×) and 0.5
Erythema (skin; 0.025 % hexyl nicotinate lotion, site buttocks, single subjects, score 0-3): 0 (4×) and 1
Erythema (skin; 0.05 % hexyl nicotinate lotion (Example l), site arms, single subjects, score 0-3): 0 (2×) and 0.5 (2×) and 1
Erythema (skin; 0.05 % hexyl nicotinate lotion (Example l), site buttocks, single subjects, score 0-3): 1 (2×) and 0.5 and 0 (2×)
Erythema (skin; 0.10 % hexyl nicotinate lotion, site arms, single subjects, score 0-3): 2 (3×) and 0 and 1
Erythema (skin; 0.10 % hexyl nicotinate lotion, site buttocks, single subjects, score 0-3): 2 and 1 and 0.5 (2×) and 3
Erythema (skin; summary of ten subjects, 0.025 % hexyl nicotinate, score 0-3): 0.15
Erythema (skin; summary of ten subjects, 0.05 % hexyl nicotinate, score 0-3): 0.45
Erythema (skin; summary of ten subjects, 0.10 % hexyl nicotinate, score 0-3): 1.40
Structure (SMILES): CCCCCCOC(=O)c1cccnc1 [hexyl nicotinate, Hexyl nicotinate]
Erythema (skin; concentrations in the range 0.l to 0.2% by weight of the composition, patients): cause erytheme in a significant proportion of patients
Area (local blood flow; 0.025 % hexyl nicotinate lotion, site arms, single subjects, area under curve of blood cell flux against time, adjusted to a sensitivity of 1): 0 cm^2 (4×) and 124.05 cm^2
Area (local blood flow; 0.025 % hexyl nicotinate lotion, site buttocks, single subjects, area under curve of blood cell flux against time): 5.00 cm^2 and 0 cm^2 (3×) and 51.59 cm^2
Area (local blood flow; 0.05 % hexyl nicotinate lotion (Example l), site arms, single subjects, area under curve of blood cell flux against time): 32.17 cm^2 and 0 cm^2 and 89.59 cm^2 and 80.90 cm^2 and 126.32 cm^2
Area (local blood flow; 0.05 % hexyl nicotinate lotion (Example l), site buttocks, single subjects, area under curve of blood cell flux against time): 91.86 cm^2 and 22.28 cm^2 and 4.29 cm^2 and 0 cm^2 and 64.73 cm^2
Area (local blood flow; 0.10 % hexyl nicotinate lotion, site arms, single subjects, area under curve of blood cell flux against time): 103.06 cm^2 and 0 cm^2 and 82.80 cm^2 and 152.26 cm^2 and 119.99 cm^2
Area (local blood flow; 0.10 % hexyl nicotinate lotion, site buttocks, single subjects, area under curve of blood cell flux against time): 246.74 cm^2 and 119.97 cm^2 and 0 cm^2 and 5.24 cm^2 and 199.76 cm^2
No. measurable responses (local blood flow; 0.025 % hexyl nicotinate): 2
No. measurable responses (local blood flow; 0.05 % hexyl nicotinate): 8
No. measurable responses (local blood flow; 0.10 % hexyl nicotinate): 8
Area (local blood flow; summary of ten subjects, 0.025 % hexyl nicotinate): 18.05 cm^2
Area (local blood flow; summary of ten subjects, 0.05 % hexyl nicotinate): 51.21 cm^2
Area (local blood flow; summary of ten subjects, 0.10 % hexyl nicotinate): 102.98 cm^2
Time to response Initial (local blood flow; 0.025 % hexyl nicotinate): 5.5 ± 0.7 min
Time to response Peak (local blood flow; 0.025 % hexyl nicotinate): 22.5 ± 6.4 min
Time to response Return to zero (local blood flow; 0.025 % hexyl nicotinate): 78.5 ± 16.3 min
Time to response Initial (local blood flow; 0.05 % hexyl nicotinate): 10.6 ± 5.0 min
Time to response Peak (local blood flow; 0.05 % hexyl nicotinate): 27.9 ± 12.3 min
Time to response Return to zero (local blood flow; 0.05 % hexyl nicotinate): 75.8 ± 19.2 min
Time to response Initial (local blood flow; 0.10 % hexyl nicotinate): 7.8 ± 2.3 min
Time to response Peak (local blood flow; 0.10 % hexyl nicotinate): 20.8 ± 6.4 min
Time to response Return to zero (local blood flow; 0.10 % hexyl nicotinate): 83.3 ± 17.7 min
